Reference: publication PMC12775434, “Ultra-large virtual screening unveils potent agonists of the neuromodulatory orphan receptor GPR139” (Nature Communications, 2025)
“And” between values parts separate entries of the source, which are not always exact repeats. Identical values can stand only once. Like-named read-outs stand apart in the source and are kept apart here.

Experiments:
GPR139 [1] = target: T1, GPR139 (Homo sapiens, UniProt Q6DWJ6); test: Ca2+ mobilization assay, antagonist mode (EC80 800 nM Lundbeck Cmp 1a after 20 min preincubation), GPR139-CHOk1; assay type: cell-based
T1 sequence (Q6DWJ6 1-353): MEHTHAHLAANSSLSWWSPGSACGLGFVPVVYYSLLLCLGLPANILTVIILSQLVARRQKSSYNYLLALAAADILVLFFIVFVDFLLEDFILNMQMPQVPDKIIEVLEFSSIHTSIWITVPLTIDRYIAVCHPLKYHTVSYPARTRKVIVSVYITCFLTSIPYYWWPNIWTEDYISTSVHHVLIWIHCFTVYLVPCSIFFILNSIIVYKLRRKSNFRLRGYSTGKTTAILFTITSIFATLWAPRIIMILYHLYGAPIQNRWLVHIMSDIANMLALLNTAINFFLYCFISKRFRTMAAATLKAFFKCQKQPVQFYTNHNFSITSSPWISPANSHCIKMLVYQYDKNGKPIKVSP
Outline: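 Fluo-4-loaded GPR139-CHOk1 cells in HEPES-buffered HBSS (pH 7.4, 2.5 mM probenecid) given test compounds at 10 µM, then after 20 min challenged with 800 nM Lundbeck Cmp 1a (EC80). Calcium fluorescence read at 37 °C, 485/525 nm.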

GPR139 [2] = target: T1, GPR139; test: Inositol monophosphate (IP1) accumulation assay, GPR139-CHOk1; assay type: cell-based; details: for Emax: normalized to Lundbeck Cmp 1a, read-out: Emax (%) IP1
Experimental: Primary screening and pharmacological characterization of compounds were performed using a CHO-K1 cell line that stably expresses human GPR139 (GPR139-CHOk1). The GPR139-CHOk1 cell line was kindly provided by H. Lundbeck A/S, Denmark[24]. GPR139-CHOk1 cells were grown in Ham’s F-12 Kaighn’s Modification Medium (ThermoFisher #21127030) supplemented with 10% dialyzed fetal bovine serum (US origin, ThermoFisher #26400044), 100 units/mL Penicillin-Streptomycin (ThermoFisher #15140122), and 1 mg/mL Geneticin (ThermoFisher #11811031). […] M1R-CHOk1 cells were purchased from The Missouri S&T cDNA Resource Center (#CEM100TN00). M1R-CHOk1 cells were grown in Ham’s F12 Medium (ThermoFisher #21765029) supplemented with 10% fetal bovine serum (Brazilian origin, ThermoFisher #10270106), 100 units/mL Penicillin-Streptomycin, and 0.25 mg/mL Geneticin. HEK293A cells transiently transfected with GPR139 were used for additional pharmacological assessment of signaling pathways activated by GPR139. HEK239A cells were generously provided by Dr. Asuka Inoue, Tohoku University, Japan. HEK293A cells were grown in Dulbecco’s Modified Eagle Medium (ThermoFisher #31966047) supplemented with 10% dialyzed fetal bovine serum and 100 units/mL Penicillin-Streptomycin. Cell lines were maintained at 37 °C in humidified incubator equilibrated with 5% CO2.
HTRF IP-One Gq kit (Cisbio #62IPAPEC) was used to detect the accumulation of inositol monophosphate (IP1) as described in the work by Shehata et al.[26]. GPR139-CHOk1 cells were dissociated and resuspended in HEPES buffer. 50,000 cells in 5 µL and 5 µL test compounds diluted from DMSO stocks (final DMSO concentration of maximally 0.3%) in HEPES buffer supplemented with 40 mM LiCl were mixed in each well of white 384-well OptiPlate (PerkinElmer #6007290). The cells were incubated for 1 h at 37 °C. Then, 10 µL detection reagent composed of 2.5% Eu3 + -anti-IP1 antibody and 2.5% IP1-d2 diluted in lysis buffer was added, and the cells were incubated for 1 h at room temperature before measurements. Measurements were performed on EnVision Multimode Plate Reader (PerkinElmer) using excitation light of 340 nm and emission light of 615 nm and 665 nm. The time resolved-fluorescence resonance energy transfer (TR-FRET) 665 nm/615 nm ratio, which is inversely proportional to the IP1 accumulation, was used to determine the IP1 response.
Pharmacological data and statistical analyses were performed in GraphPad Prism v9–10 (Graphpad Software Inc., San Diego, CA), which are also specifically described in the figure and table legends. The functional assay responses were normalized to buffer (0%) and Lundbeck Cmp 1a or JNJ-63533054 (100%), for Ca^2+ and IP1 experiments in the GPR139-CHOk1 stable cell line or Ca^2+, G protein activation, and arrestin-3 recruitment experiments in the HEK293A cells transiently transfected with GPR139, respectively. Data are from at least three independent experiments, unless stated otherwise. Concentration-response curves were fitted applying non-linear regression using the log (agonist) versus response model with variable slope. ANOVA was applied for comparing results and determining statistical significance. Comparison of responses to the reference was performed using one-way ANOVA with Dunnett’s multiple comparisons test at significance threshold of p < 0.05. Comparison of responses across assays and ligands was performed using two-way ANOVA with Tukey’s multiple comparisons test at a significance threshold of p < 0.05.

[3] = log [Compound] M -4.5, replicate experiments
[4] = log [Compound] M -5.0, replicate experiments
[5] = log [Compound] M -5.5, replicate experiments
[6] = log [Compound] M -6.0, replicate experiments
[7] = log [Compound] M -6.5, replicate experiments
[8] = log [Compound] M -7.0, replicate experiments
[9] = log [Compound] M -7.5, replicate experiments
[10] = log [Compound] M -8.0, replicate experiments

| Structure (SMILES) | Emax (GPR139 [2]; Supplementary Table 2) [%] | IP1 response (% of Cmp 1a) (GPR139 [2]; [3]) | IP1 response (% of Cmp 1a) (GPR139 [2]; [4]) | IP1 response (% of Cmp 1a) (GPR139 [2]; [5]) | IP1 response (% of Cmp 1a) (GPR139 [2]; [6]) | IP1 response (% of Cmp 1a) (GPR139 [2]; [7]) | IP1 response (% of Cmp 1a) (GPR139 [2]; [8]) | IP1 response (% of Cmp 1a) (GPR139 [2]; [9]) | IP1 response (% of Cmp 1a) (GPR139 [2]; [10]) | also measured |
| --- | --- | --- | --- | --- | --- | --- | --- | --- | --- | --- |
| Cc1cc(-c2nc(CC(=O)NC(C)c3ccccc3)no2)sc1C (stereo not drawn) [Compound 1, CC(NC(=O)CC1=NOC(=N1)C2=CC(C)=C(C)S2)C=3C=CC=CC3] | 114 ± 5 | 99 % of Cmp 1a and 115 % of Cmp 1a and 112 % of Cmp 1a and 118 % of Cmp 1a | 92 % of Cmp 1a and 116 % of Cmp 1a and 103 % of Cmp 1a and 95 % of Cmp 1a | 125 % of Cmp 1a and 86 % of Cmp 1a and 77 % of Cmp 1a and 96 % of Cmp 1a | 63 % of Cmp 1a and 74 % of Cmp 1a and 39 % of Cmp 1a and 72 % of Cmp 1a | 35 % of Cmp 1a and 29 % of Cmp 1a and 17 % of Cmp 1a and 40 % of Cmp 1a | 21 % of Cmp 1a and 14 % of Cmp 1a and 6 % of Cmp 1a and 18 % of Cmp 1a | -5 % of Cmp 1a and 4 % of Cmp 1a and 0.66 % of Cmp 1a and 5.34 % of Cmp 1a | 1.43 % of Cmp 1a and -2.78 % of Cmp 1a and 0.322 % of Cmp 1a and 4 % of Cmp 1a | Ca2+ signal (% of Cmp 1a) (GPR139 [1]; individual replicates (Supplementary Figure 1)): 6.536 % of Cmp 1a and 8.894 % of Cmp 1a and 14.743 % of Cmp 1a; EC50 (GPR139 [2]; Supplementary Table 2, mean ± SEM, read-out: pEC50 IP1 (converted)): 794 nM |
| Cc1cscc1-c1nc(CC(=O)NC(C)c2ccccc2)no1 (stereo not drawn) [Compound 1.1, CC(C1=CC=CC=C1)NC(CC2=NOC(C3=CSC=C3C)=N2)=O] | 91 ± 10 | 92 % of Cmp 1a and 58 % of Cmp 1a and 83 % of Cmp 1a and 87 % of Cmp 1a | 112 % of Cmp 1a and 74 % of Cmp 1a and 80 % of Cmp 1a and 115 % of Cmp 1a | 111 % of Cmp 1a and 87 % of Cmp 1a and 96 % of Cmp 1a and 100 % of Cmp 1a | 125 % of Cmp 1a and 85 % of Cmp 1a and 89 % of Cmp 1a | 112 % of Cmp 1a and 76 % of Cmp 1a (2×) and 95 % of Cmp 1a | 71 % of Cmp 1a and 56 % of Cmp 1a and 38 % of Cmp 1a and 67 % of Cmp 1a | 56 % of Cmp 1a and 27 % of Cmp 1a and 28 % of Cmp 1a and 45 % of Cmp 1a | 22 % of Cmp 1a and 5 % of Cmp 1a and -0.544 % of Cmp 1a and 16 % of Cmp 1a | Ca2+ signal (% of Cmp 1a) (GPR139 [1]; individual replicates (Supplementary Figure 4)): -3.33 % of Cmp 1a and 11 % of Cmp 1a and -12 % of Cmp 1a; EC50 (GPR139 [2]; GPR139-CHOk1, read-out: EC50, IP1 accumulation): 50 nM; IP1 response (% of Cmp 1a) (GPR139 [2]; log [compound] M -4.5, individual replicates): 92 % of Cmp 1a and 58 % of Cmp 1a and 83 % of Cmp 1a and 87 % of Cmp 1a; IP1 response (% of Cmp 1a) (GPR139 [2]; log [compound] M -5.0, individual replicates): 112 % of Cmp 1a and 74 % of Cmp 1a and 80 % of Cmp 1a and 115 % of Cmp 1a; IP1 response (% of Cmp 1a) (GPR139 [2]; log [compound] M -5.5, individual replicates): 111 % of Cmp 1a and 87 % of Cmp 1a and 96 % of Cmp 1a and 100 % of Cmp 1a; IP1 response (% of Cmp 1a) (GPR139 [2]; log [compound] M -6.0, individual replicates): 125 % of Cmp 1a and 85 % of Cmp 1a and 89 % of Cmp 1a; IP1 response (% of Cmp 1a) (GPR139 [2]; log [compound] M -6.5, individual replicates): 112 % of Cmp 1a and 76 % of Cmp 1a (2×) and 95 % of Cmp 1a; IP1 response (% of Cmp 1a) (GPR139 [2]; log [compound] M -7.0, individual replicates): 71 % of Cmp 1a and 56 % of Cmp 1a and 38 % of Cmp 1a and 67 % of Cmp 1a; IP1 response (% of Cmp 1a) (GPR139 [2]; log [compound] M -7.5, individual replicates): 56 % of Cmp 1a and 27 % of Cmp 1a and 28 % of Cmp 1a and 45 % of Cmp 1a; IP1 response (% of Cmp 1a) (GPR139 [2]; log [compound] M -8.0, individual replicates): 22 % of Cmp 1a and 5 % of Cmp 1a and -0.544 % of Cmp 1a and 16 % of Cmp 1a |
